US10119168B2, “Methods for the treatment of kidney fibrosis” (priority 2014, dated 2018)

Tested on: mouse kidney
Assay: RNA-seq of kidney gene expression over time in FA nephropathy progression (Table 1)
Type: in vivo
Text: Identification of Candidate Genes for Biomarkers of Kidney Fibrosis Through RNA-Seq. […] To select genes that are indicative of fibrosis candidates were considered from this later group that had robust upregulation (>5-fold with >100 read counts at peak) over time as fibrosis progresses. Another important criteria was the location of the protein product of the gene, either in extracellular matrix or transmembrane, to increase the chance of detecting it in the urine and use it as a biomarker(11).
(§1) RNA samples (n=3 mice/time point) were sequenced at the Bioplymers Facility at the Harvard Medical School. Libraries were prepared from 10 ng total RNA per sample using the IntegenX Apollo 324 system and NuGEN SPIA reagents. Libraries were multiplexed in groups of three per lane of a flowcell and 50 cycle, paired-end sequencing was performed on an Illumina HiSeq2000 instrument. Illumina sequence quality was surveyed with FastQC (available on the world wide web at bioinformatics.babraham.ac.uk/projects/fastqc/) to ensure suitability of library generation and sequencing for further analysis. Adapters and lower quality bases were trimmed with Cutadapt (available on the world wide web at code.google.com/p/cutadapt/), using a Phred quality cutoff of 20, and reassessed with FastQC. Trimmed reads were aligned to the Ensembl NCBIM37 Mus musculus genome build with TopHat2. Aligned reads were summarized at the gene level against the Illumina iGenomes (available on the world wide web at tophat.cbcb.umd.edu/igenomes.html) NCBIM37 Mus musculus gene annotations using HTSeq (available on the world wide web at huber.embl.de/users/anders/HTSeq/doc/overview.html). […] The full dataset is available in the NCBI GEO database with the accession number GSE65267. Raw data is accessible on the world wide web at ncbi.nlm.nih.gov/geo/query/acc.cgi?acc=GSE65267.
Mice were sacrificed at 1, 2, 3, 7 and 14 days following administration. […] All mice were sacrificed at 14 days.
as §1, with “The quantity and quality of mRNA” for “RNA samples (n=3 mice/time point)”, “assayed on an Agilent 2200 TapeStation instrument and by SYBR qPCR assay.” for “sequenced at the Bioplymers Facility at the Harvard Medical School.”, “(https://code.google.com/p/cutadapt/),” for “(available on the world wide web at code.google.com/p/cutadapt/),”

## Nc1nc2ncc(CNc3ccc(C(=O)N[C@@H](CCC(=O)O)C(=O)O)cc3)nc2c(=O)[nH]1 [FA, folic acid]
Day 1
  7SK RNA mean fold change from normal: 0.04 fold
  2310042D19Rik mean fold change from normal: 0.09 fold
  4930533I22Rik mean fold change from normal: 0.11 fold
  4933417A18Rik mean fold change from normal: 0.04 fold
  8430408G22Rik mean fold change from normal: 0.09 fold
  9030619P08Rik mean fold change from normal: 0.01 fold
  Slc2a5 mean fold change from normal: 0.07 fold
  Slc4a1 mean fold change from normal: 0.11 fold
  Slc5a4a mean fold change from normal: 0.02 fold
  Slc5a12 mean fold change from normal: 0.06 fold
  Slc6a12 mean fold change from normal: 0.02 fold
  Slc7a13 mean fold change from normal: 0.02 fold
  Slc28a1 mean fold change from normal: 0.02 fold
  Slc34a1 mean fold change from normal: 0.05 fold
  Slc34a2 mean fold change from normal: 11.81 fold
  Slc34a3 mean fold change from normal: 0.05 fold
  Slc46a3 mean fold change from normal: 0.11 fold
  Slco1a1 mean fold change from normal: 0.18 fold
  Smoc2 mean fold change from normal: 0.06 fold
  Smpdl3b mean fold change from normal: 222.02 fold
  Snx31 mean fold change from normal: 0.06 fold
  Socs1 mean fold change from normal: 77.54 fold
  Sox4 mean fold change from normal: 12.86 fold
  Sox9 mean fold change from normal: 24.10 fold
  Spaca7 mean fold change from normal: 27.30 fold
  Spink6 mean fold change from normal: 46.74 fold
  Spp1 mean fold change from normal: 113.22 fold
  Spred3 mean fold change from normal: 6.01 fold
  Spsb1 mean fold change from normal: 11.68 fold
  Spt1c3 mean fold change from normal: 0.07 fold
  St8sia2 mean fold change from normal: 3.07 fold
  Stil mean fold change from normal: 13.84 fold
  Stk32a mean fold change from normal: 10.38 fold
  Stra6 mean fold change from normal: 1.19 fold
  Susd2 mean fold change from normal: 0.18 fold
  Sycn mean fold change from normal: 0.07 fold
  Synpr mean fold change from normal: 0.23 fold
  Sytl2 mean fold change from normal: 3.75 fold
  Tagln2 mean fold change from normal: 8.92 fold
  Tbx10 mean fold change from normal: 0.06 fold
  Timd2 mean fold change from normal: 7.27 fold
  Timp1 mean fold change from normal: 175.24 fold
  Tlr2 mean fold change from normal: 6.43 fold
  Tmem25 mean fold change from normal: 0.11 fold
  Tmem26 mean fold change from normal: 0.10 fold
  Tmem207 mean fold change from normal: 0.01 fold
  Tmsb10 mean fold change from normal: 19.04 fold
  Tnc mean fold change from normal: 13.27 fold
  Tnfaip3 mean fold change from normal: 1.97 fold
  Tnfrsf23 mean fold change from normal: 18.16 fold
  Top2a mean fold change from normal: 5.38 fold
  Tpx2 mean fold change from normal: 3.87 fold
  Tril mean fold change from normal: 0.07 fold
  Tsc22d1 mean fold change from normal: 8.11 fold
  Ttc36 mean fold change from normal: 0.04 fold
  Ttr mean fold change from normal: 0.05 fold
  Tyrobp mean fold change from normal: 1.26 fold
  Ugt3a1 mean fold change from normal: 0.18 fold
  Uhrf1 mean fold change from normal: 16.90 fold
  Upp2 mean fold change from normal: 0.25 fold
  Vcam1 mean fold change from normal: 13.66 fold
  Vill mean fold change from normal: 0.09 fold
  Vmn1r18 mean fold change from normal: 0.02 fold
  Vmn1r19 mean fold change from normal: 0.03 fold
  Vmn1r20 mean fold change from normal: 0.02 fold
  Vmn1r-ps11 mean fold change from normal: 0.02 fold
  Vstm2a mean fold change from normal: 0.04 fold
  Vtcn1 mean fold change from normal: 64.93 fold
  Vwce mean fold change from normal: 0.06 fold
  Wfdc15b mean fold change from normal: 0.02 fold
  Ybx2 mean fold change from normal: 0.08 fold
Day 2
  7SK RNA mean fold change from normal: 0.04 fold
  2310042D19Rik mean fold change from normal: 0.08 fold
  4930533I22Rik mean fold change from normal: 0.09 fold
  4933417A18Rik mean fold change from normal: 0.07 fold
  8430408G22Rik mean fold change from normal: 0.23 fold
  9030619P08Rik mean fold change from normal: 0.05 fold
  Slc2a5 mean fold change from normal: 0.09 fold
  Slc4a1 mean fold change from normal: 0.09 fold
  Slc5a4a mean fold change from normal: 0.37 fold
  Slc5a12 mean fold change from normal: 0.34 fold
  Slc6a12 mean fold change from normal: 0.13 fold
  Slc7a13 mean fold change from normal: 0.02 fold
  Slc28a1 mean fold change from normal: 0.19 fold
  Slc34a1 mean fold change from normal: 0.11 fold
  Slc34a2 mean fold change from normal: 16.20 fold
  Slc34a3 mean fold change from normal: 0.05 fold
  Slc46a3 mean fold change from normal: 0.36 fold
